Read-outs that look alike come from different tables or passages of the source. Some results are limits rather than exact numbers.

Assay [1] has as its target CDK2/Cyclin E1 complex (Homo sapiens, UniProt P24941). As to the kind of experiment: CDK2 inhibition assay (Caliper/LabChip EZ Reader kinase assay). It counts as biochemical. The note with it: Table 1, CDK2/Cyclin E1 0.5 nM, ATP 2 mM, 35 min at 27° C. In outline:
(§1)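 Caliper/LabChip EZ Reader mobility-shift assays. CDK9/Cyclin T1 at 8 nM with 2 μM 5-FAM-CDK9tide peptide and 10 mM MgCl2; CDK2/Cyclin E1 at 0.5 nM with 2 μM 5-FAM-CDK7tide and 2 mM MgCl2.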

Assay [2] addresses T1, CDK12 (aa686-1082)/Cyclin K complex (Homo sapiens, UniProt Q9NYV4).
T1 construct: CDK12 (aa686-1082)/Cyclin K complex
As to the kind of experiment: CDK12 inhibition assay (Caliper/LabChip EZ Reader kinase assay). It counts as biochemical. The note with it: Table 1, CDK12 (aa686-1082)/Cyclin K 50 nM, ATP 2 mM, 3 hr at 27° C.

The subject of assay [3] is HCC70 cells. As to the kind of experiment: Inhibition of proliferation of HCC70 cells (CyQUANT Direct Cell Proliferation Assay, 72 hour). It counts as cell-based, human. In outline: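 Human triple-negative breast cancer HCC70 cells cultured at 37° C, 5% CO2, with compound for 72 hour. Anti-proliferative effect read by CyQUANT Direct Cell Proliferation Assay. Dinaciclib, a CDK inhibitor analog and triptolide served as positive controls.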

Assay [4] concerns the target CDK7/Cyclin H/MAT1 complex (Homo sapiens, UniProt P50613). As to the kind of experiment: CDK7 inhibition assay (Caliper/LabChip EZ Reader kinase assay). It counts as biochemical. The conditions noted are these: Table 1, CDK7/Cyclin H/MAT1 6 nM, ATP 2 mM, 35 min at 27° C. Put shortly: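 A Perkin Elmer Caliper/LabChip EZ Reader (Waltham, MA) platform served as the basis for this CDK7 kinase inhibition assay. The work was carried out by Biortus Biosciences, located in Jiangyin, Jiangsu Province, P.R. of China. Each CDK studied had its own kinase assay, and compounds were evaluated for their ability to block CDK7 activity.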

Assay [5] has as its system A673 cells. The assay is described as follows: Inhibition of proliferation of A673 cells (CyQUANT, 72 hour). In kind it is cell-based, human. The conditions noted are these: A673 cells, 72 hour, CyQUANT; read-out: Inhibition of Proliferation of A673 Cells (calculated IC50). In outline: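 Human Ewing's sarcoma A673 cells in DMEM with 10% FBS and 1 mM sodium pyruvate, 37° C, 5% CO2, treated 72 h with compound from 4 μM to […] (0.5 log dilutions). Antiproliferative effect read by CyQUANT assay.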

Assay [6] addresses CDK9/Cyclin T1 complex (Homo sapiens, UniProt P50750). The assay is described as follows: CDK9 inhibition assay (Caliper/LabChip EZ Reader kinase assay). In kind it is biochemical. The conditions noted are these: Table 1, CDK9/Cyclin T1 8 nM, ATP 2 mM, 15 min at 27° C. In outline:
as §1

Setting [7] is: Homo sapiens, HCC70, 72 h, read-out: Inhibition of Proliferation of HCC70 Cells (calculated IC50).

T1 sequence (Q9NYV4 686-1082, species assumed): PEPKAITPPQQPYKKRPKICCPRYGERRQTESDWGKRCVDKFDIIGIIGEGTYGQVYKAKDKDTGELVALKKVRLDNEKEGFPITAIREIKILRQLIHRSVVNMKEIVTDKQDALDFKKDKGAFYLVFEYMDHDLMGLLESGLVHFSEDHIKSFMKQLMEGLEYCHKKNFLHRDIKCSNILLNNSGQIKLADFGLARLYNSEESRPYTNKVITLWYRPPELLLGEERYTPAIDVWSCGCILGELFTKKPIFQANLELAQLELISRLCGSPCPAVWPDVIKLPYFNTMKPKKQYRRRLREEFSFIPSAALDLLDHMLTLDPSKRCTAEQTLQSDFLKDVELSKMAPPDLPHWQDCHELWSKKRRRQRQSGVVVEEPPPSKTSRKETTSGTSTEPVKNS
T1 sequence (O75909 whole entry partner, species assumed, the tested form may be a part): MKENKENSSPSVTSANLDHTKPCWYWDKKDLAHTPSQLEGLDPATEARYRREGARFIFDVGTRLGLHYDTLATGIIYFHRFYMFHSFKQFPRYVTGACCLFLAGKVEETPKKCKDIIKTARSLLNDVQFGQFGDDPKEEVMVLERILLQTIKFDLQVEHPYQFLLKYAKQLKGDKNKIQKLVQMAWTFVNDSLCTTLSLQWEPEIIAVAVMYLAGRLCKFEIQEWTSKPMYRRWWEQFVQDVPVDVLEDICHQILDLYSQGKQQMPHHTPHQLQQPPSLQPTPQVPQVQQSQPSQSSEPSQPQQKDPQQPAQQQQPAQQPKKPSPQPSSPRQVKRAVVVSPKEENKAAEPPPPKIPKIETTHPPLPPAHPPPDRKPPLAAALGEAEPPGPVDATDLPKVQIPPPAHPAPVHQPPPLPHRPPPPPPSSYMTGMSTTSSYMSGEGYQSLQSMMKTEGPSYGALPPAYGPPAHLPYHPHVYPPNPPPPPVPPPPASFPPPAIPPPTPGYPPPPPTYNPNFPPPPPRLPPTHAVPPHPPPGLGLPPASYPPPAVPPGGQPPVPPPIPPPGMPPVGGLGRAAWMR
Chain of CDK7/Cyclin H/MAT1 complex (P50613 whole entry, species assumed): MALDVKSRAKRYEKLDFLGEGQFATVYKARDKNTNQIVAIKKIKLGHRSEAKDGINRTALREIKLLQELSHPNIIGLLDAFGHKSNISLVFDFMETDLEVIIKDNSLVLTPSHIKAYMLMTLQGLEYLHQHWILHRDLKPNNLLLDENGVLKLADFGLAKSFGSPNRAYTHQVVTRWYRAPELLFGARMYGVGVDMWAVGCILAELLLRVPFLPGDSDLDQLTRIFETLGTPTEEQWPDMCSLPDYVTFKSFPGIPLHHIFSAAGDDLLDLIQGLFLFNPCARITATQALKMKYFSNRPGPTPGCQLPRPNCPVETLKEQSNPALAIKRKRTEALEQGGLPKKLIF
Chain of CDK7/Cyclin H/MAT1 complex (P51946 whole entry partner, species assumed): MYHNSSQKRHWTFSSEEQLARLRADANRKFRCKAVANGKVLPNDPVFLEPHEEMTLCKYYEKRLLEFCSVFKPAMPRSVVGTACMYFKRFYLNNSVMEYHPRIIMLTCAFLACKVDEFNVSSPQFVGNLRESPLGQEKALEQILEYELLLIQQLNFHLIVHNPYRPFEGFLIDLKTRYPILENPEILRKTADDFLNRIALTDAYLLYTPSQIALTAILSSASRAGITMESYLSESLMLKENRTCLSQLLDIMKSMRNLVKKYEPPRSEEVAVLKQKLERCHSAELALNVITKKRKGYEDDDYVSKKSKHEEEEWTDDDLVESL
Chain of CDK7/Cyclin H/MAT1 complex (P51948 whole entry partner, species assumed): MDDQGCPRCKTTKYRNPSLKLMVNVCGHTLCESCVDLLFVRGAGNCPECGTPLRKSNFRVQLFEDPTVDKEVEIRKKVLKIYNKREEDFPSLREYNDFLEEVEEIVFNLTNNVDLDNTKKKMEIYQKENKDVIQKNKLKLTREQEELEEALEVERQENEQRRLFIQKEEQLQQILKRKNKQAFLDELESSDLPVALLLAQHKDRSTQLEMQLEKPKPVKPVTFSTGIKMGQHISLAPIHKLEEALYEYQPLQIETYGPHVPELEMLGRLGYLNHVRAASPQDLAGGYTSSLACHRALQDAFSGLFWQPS
Chain of CDK9/Cyclin T1 complex (P50750 whole entry, species assumed): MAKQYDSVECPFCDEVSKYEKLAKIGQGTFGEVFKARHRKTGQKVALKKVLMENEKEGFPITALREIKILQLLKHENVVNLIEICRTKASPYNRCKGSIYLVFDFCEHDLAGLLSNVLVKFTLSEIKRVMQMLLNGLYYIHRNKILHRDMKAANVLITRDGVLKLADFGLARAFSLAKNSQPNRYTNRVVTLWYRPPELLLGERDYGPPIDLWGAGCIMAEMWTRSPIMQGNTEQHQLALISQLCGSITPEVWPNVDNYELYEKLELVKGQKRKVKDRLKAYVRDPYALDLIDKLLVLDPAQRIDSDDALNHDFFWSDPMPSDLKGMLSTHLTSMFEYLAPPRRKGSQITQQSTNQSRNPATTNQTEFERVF
Chain of CDK9/Cyclin T1 complex (O60563 whole entry partner, species assumed): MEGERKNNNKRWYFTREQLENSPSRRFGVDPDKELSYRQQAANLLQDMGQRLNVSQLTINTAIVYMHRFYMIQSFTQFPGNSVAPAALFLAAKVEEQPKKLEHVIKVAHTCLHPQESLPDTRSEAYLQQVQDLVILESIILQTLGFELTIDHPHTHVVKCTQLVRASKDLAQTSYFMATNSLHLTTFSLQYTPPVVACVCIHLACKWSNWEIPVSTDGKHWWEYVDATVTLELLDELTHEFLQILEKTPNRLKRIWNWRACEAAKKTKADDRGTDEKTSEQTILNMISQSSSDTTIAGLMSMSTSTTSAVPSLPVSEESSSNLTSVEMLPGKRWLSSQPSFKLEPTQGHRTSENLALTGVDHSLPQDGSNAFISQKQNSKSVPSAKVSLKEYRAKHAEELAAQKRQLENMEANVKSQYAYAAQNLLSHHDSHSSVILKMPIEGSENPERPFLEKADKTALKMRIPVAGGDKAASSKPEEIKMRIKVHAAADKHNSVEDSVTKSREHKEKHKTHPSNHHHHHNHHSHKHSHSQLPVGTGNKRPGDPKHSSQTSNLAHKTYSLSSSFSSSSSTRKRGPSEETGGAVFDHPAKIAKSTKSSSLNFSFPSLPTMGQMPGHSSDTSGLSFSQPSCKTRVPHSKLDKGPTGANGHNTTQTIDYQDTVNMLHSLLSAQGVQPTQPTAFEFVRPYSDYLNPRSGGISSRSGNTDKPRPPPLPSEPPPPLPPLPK

For `FC(F)(F)c1cnc(N[C@H]2CCCNC2)nc1-c1c[nH]c2cc(-c3cccc(Oc4ccccc4)c3)ccc12` [Compound 341, 4-[6-(3-phenoxyphenyl)-1H-indol-3-yl]-N-[(3S)-3-piperidyl]-5 (trifluoromethyl) pyrimidin-2-amine], the IC50 in assay [1] was above 5 µM; in assay [1] (listed as 141), 0.2 to 5 µM; in assay [2] it was above 5 µM; in assay [2] (listed as 141), 0.2 to 5 µM; in assay [3] (setting [7]), 1 to 5 µM; in assay [3] (listed as 141, read-out: Inhibition of Proliferation of HCC70 Cells (calculated IC50)), below 0.1 µM. Moreover, the IC50 is 0.2 to 5 µM in assay [4]; below 0.02 µM in assay [4] (listed as 141); below 0.02 µM in assay [5]; above 5 µM in assay [6]; 0.2 to 5 µM in assay [6] (listed as 141).
For `O=S1(=O)CCn2cc(-c3nc(N[C@H]4CCCNC4)ncc3C(F)(F)F)c3cccc1c32` [Compound 348, (S)-6-(2-(piperidin-3-ylamino)-5-(trifluoromethyl)pyrimidin-4-yl)-2,3-dihydro-[1,4]thiazino[2,3,4-hi]indole 1,1-dioxide], the IC50 in assay [1] is above 5 µM; in assay [1] (listed as 117) it was 0.2 to 5 µM; in assay [2] it was above 5 µM; in assay [2] (listed as 117) it was 0.2 to 5 µM; in assay [3] (setting [7]), 0.1 to 1 µM; in assay [4], 0.02 to 0.2 µM. Further, the IC50 in assay [4] (listed as 117) was 0.02 to 0.2 µM; in assay [5] it was 0.02 to 0.2 µM; in assay [6], above 5 µM; in assay [6] (listed as 117), 0.2 to 5 µM.
For `CCN1C[C@@H](Nc2ncc(C(F)(F)F)c(-c3c[nH]c4cc(S(C)(=O)=O)ccc34)n2)CC(C)(C)C1` [Compound 369, N-[(3S)-1-ethyl-5,5-dimethyl-3-piperidyl]-4-(6-methylsulfonyl-1H-indol-3-yl)-5-(trifluoromethyl)pyrimidin-2-amine], the IC50 is above 5 µM in assay [1]; above 5 µM in assay [2]; 0.2 to 5 µM in assay [2] (listed as 129); 0.1 to 1 µM in assay [3] (setting [7]); 0.02 to 0.2 µM in assay [4]; 0.02 to 0.2 µM in assay [4] (listed as 129). The results for the IC50 in assay [5] and in assay [6] were 0.02 to 0.2 µM and above 5 µM, respectively.
With `N#Cc1ccc2c(-c3nc(N[C@@H]4CNC[C@H](O)C4)ncc3C(F)(F)F)c[nH]c2c1` [Compound 370, 3-[2-[[(3S,5R)-5-hydroxy-3-piperidyl]amino]-5-(trifluoromethyl)pyrimidin-4-yl]-1H-indole-6-carbonitrile], the IC50 in assay [1] is above 5 µM; in assay [2], 0.2 to 5 µM; in assay [2] (listed as 130), above 5 µM; in assay [3] (setting [7]) it was 0.1 to 1 µM; in assay [4], 0.02 to 0.2 µM; in assay [4] (listed as 130) it was above 5 µM. In addition, the IC50 in assay [5] is 0.2 to 5 µM; in assay [6], above 5 µM.

These data come from patent publication US20240360165A1, “INHIBITORS OF CYCLIN DEPENDENT KINASE 7 (CDK7)” (Syros Pharmaceuticals, Inc., priority 2016, published 2024).
